Among the data in US4782058A, “1,3,4,6,7,11b-Hexahydro-6-phenyl-2H-pyrazino-(2,1-a)isoquinolines, for anti-histamine or anti-depression treatment” (Pennwalt Corporation, priority 1987, dated 1988) are minimal effective dose and IC50 values, retold here.

The test system of assay [1] is tetrabenazine-induced ptosis. Nature of the assay: inhibition of tetrabenazine-induced ptosis in mice. The class given is in vivo. The conditions noted are these: Mus musculus, po; male CF-1 mice, orally administered 15 min before i.v. tetrabenazine; ptosis rated 30-150 min; read-out: lowest active dose (LAD). The procedure: A particularly useful compound with respect to antidepressant activity is the title compound of Example 1 (i.e., the cis-diastereoisomeric form of the compound of formula I in which R1 is methyl, R2 is methoxy, and R3 is hydrogen). That compound was tested for antidepressant activity by measuring its ability to inhibit tetrabenazine-induced ptosis in mice.
Male CF-1 mice weighing 19-32 grams were housed for a minimum of 5 days under a 12 hour light/dark (6 am/6 pm) schedule at 70°-74° F. and relative humidity of 30-50%. Food and water were available ad libitum until the time of administration of test compounds. Mice in groups of ten were orally administered (via gastric intubation) either the control solution (distilled water, 10 ml/kg) or the test compound. The test compound was either dissolved in distilled water or suspended in distilled water containing a drop of polyoxyethylene 20 sorbitan monooleate, sold under the trademark, Tween 80. After fifteen minutes, a dose of 10 ml/kg of a solution of tetrabenazine (as its methane sulfonate salt) in distilled water (4 mg/ml) was administered by intravenous injection. The degree of palpebral closure (ptosis) was determined 30, 60, 90, 120, and 150 minutes after administration of the tetrabenazine solution. […]

The target of the next assay is T1, histamine H1 -receptors (Rattus norvegicus, UniProt P31390).
T1 construct: homogenated rat cerebral tissue; from tissue; host or cells: rat cerebral tissue, homogenate
Nature of the assay: inhibition of binding of 3H-pyrilamine to homogenated rat cerebral tissue. The conditions noted are these: 3H-pyrilamine binding, read-out: IC50 (50% inhibitory concentration). The procedure:
That compound was assayed for anti-histamine activity by measuring its ability to inhibit the binding of 3H-pyrilamine to homogenated rat cerebral tissue. (3H-Pyrilamine is a radioligand that is used to characterize histamine H1 -receptors in brain tissue.) Assay conditions were essentially those of V. T. Tran et al, Proc. Nat'l. Acad. Sci. (USA) 75, p. 6290-6294 (1978).

Structures can show the parent of a compound that is named as a salt.

T1 sequence (P31390 whole entry): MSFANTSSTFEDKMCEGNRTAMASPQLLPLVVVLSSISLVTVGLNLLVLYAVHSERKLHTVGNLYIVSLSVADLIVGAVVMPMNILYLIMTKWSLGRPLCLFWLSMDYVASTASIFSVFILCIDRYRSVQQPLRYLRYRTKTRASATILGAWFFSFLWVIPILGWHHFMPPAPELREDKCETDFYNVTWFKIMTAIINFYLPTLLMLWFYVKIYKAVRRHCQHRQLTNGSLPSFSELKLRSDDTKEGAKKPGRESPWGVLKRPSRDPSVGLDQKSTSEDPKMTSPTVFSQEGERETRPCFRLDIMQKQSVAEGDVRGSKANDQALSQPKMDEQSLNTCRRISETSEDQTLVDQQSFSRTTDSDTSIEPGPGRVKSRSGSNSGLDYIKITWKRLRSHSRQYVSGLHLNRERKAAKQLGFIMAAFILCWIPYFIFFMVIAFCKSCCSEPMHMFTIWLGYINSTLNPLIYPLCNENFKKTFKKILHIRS

As to `COc1ccc2c(c1)C[C@@H](c1ccccc1)N1CCN(C)C[C@@H]21` (relative stereo) [Example 1, cis-1,3,4,6,7,11b-hexahydro-9-methoxy-2-methyl-6-phenyl-2H-pyrazino[2,1-a]isoquinoline dihyrochloride], the minimal effective dose in assay [1] turned out to be 20 mg/kg. Turning to `CN1CCN2[C@@H](c3ccccc3)Cc3cc(O)ccc3[C@@H]2C1` (relative stereo) [Example 2, cis-1,3,4,6,7,11b-hexahydro-9-hydroxy-2-methyl-6-phenyl-2H-pyrazino[2,1-a]isoquinoline dihydrobromide], at histamine H1 -receptors, the IC50 came out at 250 nM.
